Measurements: ChEMBL document CHEMBL1201862, “PubChem BioAssay data set” (2004)
Calls of active or inactive are those of the source.

What was measured:
Escherichia coli [1] = experiment: microbe, parasite or virus in culture
Escherichia coli [2] = experiment: microbe, parasite or virus in culture; remark: listed apart in the source
[3] = biological target: Voltage-gated inwardly rectifying potassium channel KCNH2 (Homo sapiens, UniProt Q12809); conditions: Potency;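 note: confirmatory quantitative high-throughput screen measuring inhibition of hERG channel activity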
Voltage-gated inwardly rectifying potassium channel KCNH2, sequence (Q12809 whole entry): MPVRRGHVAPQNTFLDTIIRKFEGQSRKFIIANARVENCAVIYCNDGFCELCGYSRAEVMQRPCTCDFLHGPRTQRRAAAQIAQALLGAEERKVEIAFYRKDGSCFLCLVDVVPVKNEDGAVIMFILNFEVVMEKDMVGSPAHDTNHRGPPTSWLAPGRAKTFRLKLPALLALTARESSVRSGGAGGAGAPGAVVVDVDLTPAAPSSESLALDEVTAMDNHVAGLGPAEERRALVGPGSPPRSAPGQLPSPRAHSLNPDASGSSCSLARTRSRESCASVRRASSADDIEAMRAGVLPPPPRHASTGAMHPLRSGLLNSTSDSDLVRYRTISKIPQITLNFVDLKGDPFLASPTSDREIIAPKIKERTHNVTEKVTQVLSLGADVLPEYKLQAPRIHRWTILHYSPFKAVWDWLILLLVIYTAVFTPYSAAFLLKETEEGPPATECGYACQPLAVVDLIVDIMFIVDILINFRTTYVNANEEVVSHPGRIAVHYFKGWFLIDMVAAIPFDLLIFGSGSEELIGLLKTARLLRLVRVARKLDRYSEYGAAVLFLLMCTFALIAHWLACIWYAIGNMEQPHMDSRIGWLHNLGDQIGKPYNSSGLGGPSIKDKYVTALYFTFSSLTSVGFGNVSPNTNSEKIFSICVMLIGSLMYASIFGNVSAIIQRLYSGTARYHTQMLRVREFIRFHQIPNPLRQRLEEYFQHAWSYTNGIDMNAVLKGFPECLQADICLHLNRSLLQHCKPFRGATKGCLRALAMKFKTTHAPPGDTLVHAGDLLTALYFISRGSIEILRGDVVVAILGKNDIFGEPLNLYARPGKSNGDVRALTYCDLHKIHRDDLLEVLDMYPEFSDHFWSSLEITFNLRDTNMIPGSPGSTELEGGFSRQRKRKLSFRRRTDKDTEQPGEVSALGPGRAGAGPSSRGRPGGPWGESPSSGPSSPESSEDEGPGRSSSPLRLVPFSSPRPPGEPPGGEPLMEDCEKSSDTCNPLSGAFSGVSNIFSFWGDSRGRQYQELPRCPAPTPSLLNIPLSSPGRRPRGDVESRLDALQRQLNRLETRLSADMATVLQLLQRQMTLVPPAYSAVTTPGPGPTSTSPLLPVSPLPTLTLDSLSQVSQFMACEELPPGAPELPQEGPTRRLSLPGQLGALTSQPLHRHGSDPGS

Cysteine protease ATG4B = Cysteine protease ATG4B (Homo sapiens, UniProt Q9Y4P1); assay type: functional;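 note: Fluorescence-based dose-response confirmation assay measuring inhibition of ATG4B activity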
Cysteine protease ATG4B, sequence (Q9Y4P1 whole entry): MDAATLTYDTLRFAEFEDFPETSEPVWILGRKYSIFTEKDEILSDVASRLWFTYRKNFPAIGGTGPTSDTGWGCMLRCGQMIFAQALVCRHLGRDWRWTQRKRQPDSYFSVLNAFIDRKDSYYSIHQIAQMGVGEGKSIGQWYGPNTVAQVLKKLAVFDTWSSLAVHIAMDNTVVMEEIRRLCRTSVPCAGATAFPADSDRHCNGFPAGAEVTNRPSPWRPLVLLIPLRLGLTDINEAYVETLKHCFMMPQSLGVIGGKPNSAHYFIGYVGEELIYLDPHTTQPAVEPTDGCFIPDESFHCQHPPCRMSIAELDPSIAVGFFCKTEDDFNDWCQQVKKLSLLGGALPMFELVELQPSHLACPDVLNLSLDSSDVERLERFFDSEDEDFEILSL

Phospholipase A2 = Phospholipase A2 (Homo sapiens, UniProt P04054); assay type: functional;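 note: confirmatory dose-response counterscreen on phospholipase A2, testing hits that came from an ultra-high-throughput screen for ATG4B inhibitors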
Phospholipase A2, sequence (P04054 whole entry): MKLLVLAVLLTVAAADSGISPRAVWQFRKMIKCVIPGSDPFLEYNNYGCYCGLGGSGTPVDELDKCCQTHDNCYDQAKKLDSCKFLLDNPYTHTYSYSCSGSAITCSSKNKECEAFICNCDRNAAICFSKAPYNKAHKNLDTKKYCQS

[4] = biological target: T1, Sentrin-specific protease 8 (Homo sapiens, UniProt Q96LD8); experiment: inhibition of human SENP8 cleavage activity – biochemical, luminescence, SAR follow-up (AID 504501); assay type: functional
T1 sequence (Q96LD8 whole entry): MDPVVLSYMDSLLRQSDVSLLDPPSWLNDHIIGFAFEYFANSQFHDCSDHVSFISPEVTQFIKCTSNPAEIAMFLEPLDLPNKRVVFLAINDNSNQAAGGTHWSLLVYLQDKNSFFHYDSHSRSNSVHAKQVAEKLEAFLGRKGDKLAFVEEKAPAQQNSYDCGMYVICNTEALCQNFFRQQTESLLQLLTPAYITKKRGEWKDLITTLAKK

Caspase-3 = biological target: T2, Caspase-3 (Homo sapiens, UniProt P42574); experiment: SAR Analysis of small molecule inhibitors of Sentrin-specific proteases (SENPs) using a Caspase-3 Selectivity assay. [Related pubchem assays (depositor defined):AID2540, AID2599, AID434973, AID489001]; assay type: functional
T2 sequence (P42574 whole entry): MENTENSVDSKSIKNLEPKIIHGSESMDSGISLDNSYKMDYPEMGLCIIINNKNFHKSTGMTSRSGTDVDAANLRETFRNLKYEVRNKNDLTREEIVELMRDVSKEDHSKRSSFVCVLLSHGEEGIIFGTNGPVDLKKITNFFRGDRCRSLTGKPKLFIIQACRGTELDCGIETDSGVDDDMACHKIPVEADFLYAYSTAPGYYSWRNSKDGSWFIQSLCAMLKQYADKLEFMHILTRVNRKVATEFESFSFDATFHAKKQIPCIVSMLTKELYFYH

[5] = biological target: T3, Sentrin-specific protease 6 (Homo sapiens, UniProt Q9GZR1); experiment: SAR Analysis of small molecule inhibitors of Sentrin-specific protease 6 (SENP6) using a Luminescent assay. [Related pubchem assays (depositor defined):AID2582, AID2599]; assay type: functional
T3 sequence (Q9GZR1 whole entry): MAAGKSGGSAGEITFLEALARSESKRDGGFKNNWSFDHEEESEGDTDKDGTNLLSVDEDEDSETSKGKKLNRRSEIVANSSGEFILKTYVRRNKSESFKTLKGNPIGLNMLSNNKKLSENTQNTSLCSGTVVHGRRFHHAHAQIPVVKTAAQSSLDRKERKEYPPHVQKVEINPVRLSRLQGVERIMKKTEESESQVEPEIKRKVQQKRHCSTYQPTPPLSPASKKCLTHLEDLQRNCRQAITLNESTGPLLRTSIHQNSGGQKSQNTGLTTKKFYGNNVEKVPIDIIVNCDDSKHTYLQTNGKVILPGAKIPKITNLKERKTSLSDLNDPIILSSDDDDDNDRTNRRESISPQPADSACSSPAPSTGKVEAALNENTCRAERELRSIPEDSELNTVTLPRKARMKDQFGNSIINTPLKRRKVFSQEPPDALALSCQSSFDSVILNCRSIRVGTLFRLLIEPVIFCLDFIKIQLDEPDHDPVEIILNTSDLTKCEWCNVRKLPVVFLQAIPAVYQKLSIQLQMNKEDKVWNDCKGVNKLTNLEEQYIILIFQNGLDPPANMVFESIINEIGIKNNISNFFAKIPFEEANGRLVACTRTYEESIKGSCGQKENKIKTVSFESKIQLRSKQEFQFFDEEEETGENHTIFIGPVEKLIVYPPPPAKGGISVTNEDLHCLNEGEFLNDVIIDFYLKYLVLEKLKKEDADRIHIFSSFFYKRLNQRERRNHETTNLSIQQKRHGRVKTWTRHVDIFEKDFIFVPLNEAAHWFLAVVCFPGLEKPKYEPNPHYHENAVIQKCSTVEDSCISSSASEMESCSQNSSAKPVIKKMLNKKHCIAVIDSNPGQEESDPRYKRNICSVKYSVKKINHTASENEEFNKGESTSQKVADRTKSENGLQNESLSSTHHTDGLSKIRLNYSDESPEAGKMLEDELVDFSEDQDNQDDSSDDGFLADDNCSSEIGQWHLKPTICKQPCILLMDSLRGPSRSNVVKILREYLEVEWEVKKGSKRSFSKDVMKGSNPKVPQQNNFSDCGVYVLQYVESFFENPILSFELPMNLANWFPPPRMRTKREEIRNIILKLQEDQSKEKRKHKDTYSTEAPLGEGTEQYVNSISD

[6] = biological target: T4, Sentrin-specific protease 7 (Homo sapiens, UniProt Q9BQF6); experiment: inhibition of human SENP7 cleavage activity – biochemical, luminescence, SAR follow-up (AID 504497); assay type: functional
T4 sequence (Q9BQF6 whole entry): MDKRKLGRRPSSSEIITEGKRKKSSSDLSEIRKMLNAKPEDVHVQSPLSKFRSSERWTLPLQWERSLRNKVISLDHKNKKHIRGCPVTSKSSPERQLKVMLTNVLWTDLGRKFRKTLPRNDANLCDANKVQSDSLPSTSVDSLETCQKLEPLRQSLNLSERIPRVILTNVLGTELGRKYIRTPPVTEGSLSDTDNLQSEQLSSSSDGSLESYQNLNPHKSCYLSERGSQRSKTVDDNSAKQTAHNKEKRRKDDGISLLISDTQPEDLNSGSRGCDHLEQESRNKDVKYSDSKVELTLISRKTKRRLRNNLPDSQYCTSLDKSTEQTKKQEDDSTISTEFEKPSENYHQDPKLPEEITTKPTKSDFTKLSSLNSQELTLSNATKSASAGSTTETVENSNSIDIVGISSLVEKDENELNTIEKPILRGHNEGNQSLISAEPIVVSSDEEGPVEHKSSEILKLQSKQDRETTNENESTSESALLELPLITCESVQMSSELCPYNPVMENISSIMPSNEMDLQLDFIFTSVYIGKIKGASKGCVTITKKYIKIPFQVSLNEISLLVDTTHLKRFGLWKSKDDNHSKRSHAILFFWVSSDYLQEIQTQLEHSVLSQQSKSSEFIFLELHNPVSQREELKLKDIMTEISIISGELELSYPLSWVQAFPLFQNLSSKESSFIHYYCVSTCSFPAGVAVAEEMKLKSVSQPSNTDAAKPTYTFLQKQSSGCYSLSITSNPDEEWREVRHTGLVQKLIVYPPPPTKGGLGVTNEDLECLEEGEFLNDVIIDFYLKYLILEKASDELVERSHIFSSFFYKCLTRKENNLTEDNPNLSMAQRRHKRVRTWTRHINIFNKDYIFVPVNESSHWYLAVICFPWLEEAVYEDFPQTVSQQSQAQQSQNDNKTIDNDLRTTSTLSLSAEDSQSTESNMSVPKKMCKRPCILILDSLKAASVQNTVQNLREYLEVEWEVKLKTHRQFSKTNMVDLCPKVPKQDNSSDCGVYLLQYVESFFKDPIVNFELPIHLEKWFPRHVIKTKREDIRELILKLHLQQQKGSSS

Vero = experiment: viability of Vero cells under compound – cytotoxicity control for flavivirus capping enzyme inhibitors (AID 588742); assay type: functional; conditions: Chlorocebus sabaeus
Genome polyprotein = Genome polyprotein (dengue virus type 2, UniProt P29990); experiment: flavivirus cap methylation enzyme inhibition – biochemical, confirmation dose response, primary screen (AID 588689); assay type: functional
Genome polyprotein, sequence (P29990 2492-3391 limits assumed): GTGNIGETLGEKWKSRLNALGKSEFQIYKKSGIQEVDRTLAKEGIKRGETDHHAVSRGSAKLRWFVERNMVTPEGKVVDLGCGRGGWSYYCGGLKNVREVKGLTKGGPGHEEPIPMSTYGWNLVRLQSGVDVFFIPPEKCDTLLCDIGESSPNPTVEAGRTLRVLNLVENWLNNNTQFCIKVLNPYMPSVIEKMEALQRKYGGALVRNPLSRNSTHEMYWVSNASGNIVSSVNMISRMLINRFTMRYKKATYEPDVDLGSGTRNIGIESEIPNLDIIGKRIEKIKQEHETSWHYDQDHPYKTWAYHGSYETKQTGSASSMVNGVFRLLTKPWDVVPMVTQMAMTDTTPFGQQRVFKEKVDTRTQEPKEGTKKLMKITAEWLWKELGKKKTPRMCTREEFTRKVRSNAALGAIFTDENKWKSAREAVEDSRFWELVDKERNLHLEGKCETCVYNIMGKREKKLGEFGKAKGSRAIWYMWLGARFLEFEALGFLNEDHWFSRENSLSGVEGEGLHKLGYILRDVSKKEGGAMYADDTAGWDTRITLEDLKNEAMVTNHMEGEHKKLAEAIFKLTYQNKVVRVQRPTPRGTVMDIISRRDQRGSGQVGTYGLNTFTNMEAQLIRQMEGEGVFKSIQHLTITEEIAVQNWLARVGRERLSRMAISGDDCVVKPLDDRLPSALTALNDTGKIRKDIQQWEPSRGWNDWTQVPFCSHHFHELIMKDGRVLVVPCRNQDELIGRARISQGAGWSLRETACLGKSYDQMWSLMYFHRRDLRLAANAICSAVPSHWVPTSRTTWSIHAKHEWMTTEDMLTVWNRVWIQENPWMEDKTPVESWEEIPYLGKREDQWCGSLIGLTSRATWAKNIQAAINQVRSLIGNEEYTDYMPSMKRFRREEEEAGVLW

[7] = biological target: Photoreceptor-specific nuclear receptor (Homo sapiens, UniProt Q9Y5X4); assay type: functional, cell-based;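 note: CHO-S cells with Gal4-NCOR and VP16-NR2E3 two-hybrid luciferase reporter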
Photoreceptor-specific nuclear receptor, sequence (Q9Y5X4 whole entry, the tested form may be a part): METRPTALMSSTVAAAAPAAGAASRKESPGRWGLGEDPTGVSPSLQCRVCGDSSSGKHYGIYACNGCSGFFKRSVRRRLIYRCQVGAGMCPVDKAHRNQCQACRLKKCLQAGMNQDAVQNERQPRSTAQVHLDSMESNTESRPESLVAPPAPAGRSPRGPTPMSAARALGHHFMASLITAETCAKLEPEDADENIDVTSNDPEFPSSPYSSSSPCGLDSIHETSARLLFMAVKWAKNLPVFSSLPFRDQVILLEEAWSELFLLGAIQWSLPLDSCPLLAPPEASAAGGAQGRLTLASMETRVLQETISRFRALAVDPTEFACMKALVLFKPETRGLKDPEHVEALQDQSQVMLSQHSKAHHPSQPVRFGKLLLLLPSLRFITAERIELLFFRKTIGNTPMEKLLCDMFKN

Row | IC50 (Caspase-3) | IC50 [5] | IC50 [6] | SMILES | IC50 [4] | other results
1 |  |  |  | COCCCn1c(SCCc2ccccc2)nc2cc(OC)c(OC)cc2c1=N |  | AC50 (Escherichia coli [1]): 51.3 µM (active); AC50 (Escherichia coli [2]): 37.6 µM (active)
2 |  |  |  | Cc1sc2ccccc2c1CC1=NCCN1 |  | AC50 [3]: 35.5 µM (inconclusive)
3 |  |  |  | O=C(CNCC1CCCCC1)Nc1ccccc1N1CCCCC1 |  | IC50 (Cysteine protease ATG4B): 10.8 µM (active); IC50 (Phospholipase A2): 9.35 µM (active)
4 | > 99 µM (inactive) | > 99 µM (inactive) | > 99 µM (inactive) | O=C(Nc1nc2ccc(Cl)cc2s1)c1cc2ccccc2o1 | > 99 µM (inactive) | 
5 | > 99 µM (inactive) | > 99 µM (inactive) | 79.7 µM (active) | O=C(Nc1nc2c(Cl)cccc2s1)C1COc2ccccc2O1 (stereo unspecified) | > 99 µM (inactive) | 
6 |  |  |  | Cc1ccc(S(=O)(=O)N2[C@@H](c3ccc(Cl)c(Cl)c3)C(C(=O)O)=C[C@H]2CC2CCCC2)cc1 |  | CC50 (Vero): > 40 µM (active); IC50 (Genome polyprotein): 43.4 µM (active); IC50 [7]: 6.21 µM (active)
